From PMC10902181 (Journal of neurochemistry, 2023) come the findings set out here.

The structures appear in SMILES notation.

The target in experiment [1] is T1, WT GluN1/GluN2A (Homo sapiens, UniProt Q05586+Q12879). Nature of the experiment: Current-voltage curves. The following applies: WT 2A, 1 mM Mg^2+ alone.
Experiment [2] deals with T2, GluN1/GluN2A-L611Q (Homo sapiens, UniProt Q05586+Q12879, L611Q). Briefly: Current-voltage curves. The note with it: 2A-L611Q, 1 mM Mg^2+ alone.
Experiment [3] has as its target T3, WT GluN1/GluN2B (Homo sapiens, UniProt Q05586+Q13224). Briefly: Current-voltage curves. The note with it: WT 2B, 1 mM Mg^2+ alone.
A further experiment addresses GluN1/GluN2B-V620M (Homo sapiens, UniProt Q05586+Q13224, V620M). Briefly: Current-voltage curves. The note with it: 2B-V620M.
Experiment [4] addresses T1, WT GluN1/GluN2A. Nature of the experiment: TEVC current recordings from Xenopus oocytes, channel blocker inhibition. It counts as cell-based. The following applies: WT GluN1/WT 2A, 100 μM blocker, −40 mV.
The target of a further experiment is GluN1-G620R/GluN2A (Homo sapiens, UniProt Q05586+Q12879, G620R). The description is as above. It counts as cell-based. The following applies: for % inhibition: 1-G620R/2A, 100 μM blocker, −40 mV.
Experiment [5] addresses T2, GluN1/GluN2A-L611Q. Described as above. It counts as cell-based. The following applies: for % inhibition: 2A-L611Q, 100 μM blocker, −40 mV.
For experiment [6], the target named is GluN2A-N614S-containing NMDARs (Homo sapiens, UniProt Q05586+Q12879, N614S). The description is as above. The note with it: for % inhibition: 2A-N614S, 100 μM blocker, −40 mV. It counts as cell-based.
Experiment [7] has as its target GluN2A-N615K-containing NMDARs (Homo sapiens, UniProt Q05586+Q12879, N615K). The experiment is described as above. The following applies: 2A-N615K, 100 μM blocker, −40 mV. It counts as cell-based.
Experiment [8] deals with T3, WT GluN1/GluN2B. Described as above. The note with it: WT GluN1/WT 2B, 100 μM blocker, −40 mV. It counts as cell-based.
Experiment [9] has as its target GluN2B-W607C-containing NMDARs (Homo sapiens, UniProt Q05586+Q13224, W607C). The description is as above. It counts as cell-based. The following applies: 2B-W607C, 100 μM blocker, −40 mV.
Experiment [10] has as its target GluN2B-G611V-containing NMDARs (Homo sapiens, UniProt Q05586+Q13224, G611V). The experiment is described as above. It counts as cell-based. The following applies: 2B-G611V, 100 μM blocker, −40 mV.
The target in another experiment is GluN1/GluN2B-N615I (Homo sapiens, UniProt Q05586+Q13224, N615I). Described as above. The following applies: for % inhibition: 2B-N615I, 100 μM blocker, −40 mV. It counts as cell-based.
For the next experiment, the target named is GluN1/GluN2B-N615K (Homo sapiens, UniProt Q05586+Q13224, N615K). The experiment is described as above. It counts as cell-based. The note with it: 2B-N615K, 100 μM blocker, −40 mV.
The target in experiment [11] is GluN2B-N616K-containing NMDARs (Homo sapiens, UniProt Q05586+Q13224, N616K). The description is as above. It counts as cell-based. The note with it: 2B-N616K, 100 μM blocker, −40 mV.
The target in experiment [12] is GluN2B-V618G-containing NMDARs (Homo sapiens, UniProt Q05586+Q13224, V618G). The description is as above. It counts as cell-based. The note with it: 2B-V618G, 100 μM blocker, −40 mV.
Experiment [13] addresses GluN2B-V620M-containing NMDARs (Homo sapiens, UniProt Q05586+Q13224, V620M). The experiment is described as above. It counts as cell-based. The following applies: 2B-V620M, 100 μM blocker, −40 mV.

With `[Mg+2]` [Mg^2+], the “z δ” value on WT GluN1/GluN2A [1] was determined as 1.97; on GluN1/GluN2A-L611Q [2], 1.21; at WT GluN1/GluN2B [3], 1.96; on GluN1/GluN2B-V620M (1 mM Mg^2+ alone) it was 1.47. The Kd – broadly, the free concentration of one partner at which half of the binding sites on the other are occupied at equilibrium, for simple one-to-one binding – at WT GluN1/GluN2A [1] (read-out: KD, 0 mV) turned out to be 1520 µM; on GluN1/GluN2A-L611Q [2] (read-out: KD, 0 mV), 13000 µM; at WT GluN1/GluN2B [3] (read-out: KD, 0 mV), 1830 µM; at GluN1/GluN2B-V620M (read-out: KD, 0 mV, 1 mM Mg^2+ alone) it was 3930 µM.

As for `CC12CC3CC(C)(C1)CC(N)(C3)C2` [memantine], the “% inhibition” value on WT GluN1/GluN2A [4] (w/ 1 mM Mg^2+) is given as 89 ± 1.3% (30); on WT GluN1/GluN2A [4] (w/o Mg^2+) it was 94 ± 1.2% (15); at GluN1-G620R/GluN2A (w/ 1 mM Mg^2+) it was 98 ± 0.4 (8) %; on GluN1-G620R/GluN2A (w/o Mg^2+), 96 ± 1.3% (8); on GluN1/GluN2A-L611Q [5] (w/ 1 mM Mg^2+), 94 ± 0.6% (9); on GluN1/GluN2A-L611Q [5] (w/o Mg^2+), 87 ± 2.1% (12). In addition, the “% inhibition” value in experiment [6] (w/ 1 mM Mg^2+) is recorded as 25 ± 6.1% (10) ^*^¥; in experiment [6] (w/o Mg^2+), 60 ± 4.1% (9)^¥; in [7] (w/ 1 mM Mg^2+) it was 81 ± 1.6% (8) ^*^¥; in experiment [7] (w/o Mg^2+), 90 ± 2.5% (7); at WT GluN1/GluN2B [8] (w/ 1 mM Mg^2+), 93 ± 0.8% (26); on WT GluN1/GluN2B [8] (w/o Mg^2+), 97 ± 1.1% (18). Also, the “% inhibition” value in experiment [9] (w/ 1 mM Mg^2+) is on record as 92 ± 2.8% (11); in experiment [9] (w/o Mg^2+), 91 ± 2.0% (10); in experiment [10] (w/ 1 mM Mg^2+) it was 97 ± 1.2% (14); in experiment [10] (w/o Mg^2+) it was 95 ± 1.4% (10); at GluN1/GluN2B-N615I (w/ 1 mM Mg^2+) it was 98 ± 0.7% (13); on GluN1/GluN2B-N615I (w/o Mg^2+), 96 ± 1.1% (11). In addition, the “% inhibition” value at GluN1/GluN2B-N615K (w/ 1 mM Mg^2+) is given as 12 ± 1.9% (21) ^*^¥; on GluN1/GluN2B-N615K (w/o Mg^2+), 22 ± 2.5% (14)^¥; in experiment [11] (w/ 1 mM Mg^2+), 88 ± 1.6% (24)^¥; in experiment [11] (w/o Mg^2+), 93 ± 1.8% (7); in [12] (w/ 1 mM Mg^2+), 87 ± 2.1% (14)^¥; in [12] (w/o Mg^2+) it was 85 ± 1.5% (16)^¥. Besides, the entries for the “% inhibition” value in experiment [13] (w/ 1 mM Mg^2+) and in experiment [13] (w/o Mg^2+) were 95 ± 0.7% (7) and 96 ± 0.7% (8), respectively. For the same compound, the figures for the “increased potency in 1 mM Mg^2+ compared to the same variant in the absence of Mg^2+” value at GluN1-G620R/GluN2A (GluN1-G620R) and at GluN1/GluN2A-L611Q [5] (GluN2A-L611Q) were 2.4 fold and 3.1 fold, respectively. Further, the “enhanced potency in comparison to WT NMDARs” value at GluN1-G620R/GluN2A (GluN1-G620R, absence of Mg^2+) is 2.7 fold; on GluN1/GluN2B-N615I (GluN2B-N615I, absence of Mg^2+) it was 4.3 fold. Further, the “enhanced potency compared to the WT receptors” value on GluN1-G620R/GluN2A (GluN1-G620R, presence of 1 mM Mg^2+) turned out to be 17 fold; at GluN1/GluN2A-L611Q [5] (GluN2A-L611Q, presence of 1 mM Mg^2+), 3.7 fold; at GluN1/GluN2B-N615I (GluN2B-N615I, presence of 1 mM Mg^2+), 7.2 fold. The “reduced sensitivity compared to the WT receptors” value in experiment [6] (GluN2A-N614S, presence of 1 mM Mg^2+) is reported as 9 fold. The “z δ (apparent, combined block)” value on GluN1/GluN2B-V620M (1 mM Mg^2+ + 0.3 μM memantine) is listed as 1.54; on GluN1/GluN2B-V620M (1 mM Mg^2+ + 1.0 μM memantine), 1.52; on GluN1/GluN2B-V620M (1 mM Mg^2+ + 3.0 μM memantine) it was 1.38; at GluN1/GluN2B-V620M (1 mM Mg^2+ + 10 μM memantine), 1.28.
